Measured values from ChEMBL document CHEMBL3244157, “Synthesis and antiinflammatory evaluation of substituted isophthalonitriles, trimesonitriles, benzonitriles, and terephthalonitriles” (J Med Chem, 1978).

Columns and labels:
Rattus norvegicus [1] = assay: Antiinflammatory activity in Long Evans rat assessed as reduction of carrageenan-induced pedal edema at 200 mg/kg, po administered 1 hr prior to carrageenan challenge measured after 3 hrs relative to control; assay type: functional; set-up: scale not given: the % may be the effect or the level left
[2] = Toxicity in mouse assessed as overt effects; assay type: organism-based; details: in vivo
Rattus norvegicus [3] = assay: Antiinflammatory activity in Long Evans rat assessed as reduction of carrageenan-induced pedal edema at 100 mg/kg, po administered 1 hr prior to carrageenan challenge measured after 3 hrs relative to control; assay type: functional; set-up: scale not given: the % may be the effect or the level left
Rattus norvegicus [4] = assay: Antiinflammatory activity in Long Evans rat assessed as reduction of carrageenan-induced pedal edema at 150 mg/kg, po administered 1 hr prior to carrageenan challenge measured after 3 hrs relative to control; assay type: functional; set-up: scale not given: the % may be the effect or the level left

SMILES | Activity (Rattus norvegicus [1]) [%] | LD50 [2] [mg/kg] | Activity (Rattus norvegicus [3]) [%] | Activity (Rattus norvegicus [4]) [%]
Cc1cccc(C#N)c1 | 20 | > 300 | – | –
N#Cc1c(N)c(Cl)c(Cl)c(C#N)c1Cl | 25 | > 300 | – | –
N#Cc1cccc(C#N)c1 | 35 | 178 | – | –
N#Cc1ccc(Cl)cc1 | 30 | > 300 | – | –
N#Cc1c(Cl)c(C#N)c(Nc2ccc(Br)cc2)c(C#N)c1Cl | 14 | 300 | – | –
N#Cc1c(Cl)c(C#N)c(Nc2ccc(N)cc2)c(C#N)c1Cl | – | 133 | 14 | –
N#Cc1c(O)c(Cl)c(Cl)c(C#N)c1Cl | – | 178 | – | 28
CNc1c(Cl)c(Cl)c(C#N)c(Cl)c1C#N | 22 | > 300 | – | –
CCCCNc1c(Cl)c(Cl)c(C#N)c(Cl)c1C#N | 17 | > 300 | – | –
C=CCNc1c(Cl)c(Cl)c(C#N)c(Cl)c1C#N | 17 | > 300 | – | –
CCCCC(CC)CNc1c(Cl)c(Cl)c(C#N)c(Cl)c1C#N (stereo not drawn) | 0 | > 300 | – | –
COc1c(Cl)c(Cl)c(C#N)c(Cl)c1C#N | – | 178 | 0 | –
CCCOc1c(Cl)c(Cl)c(C#N)c(Cl)c1C#N | – | 178 | 8 | –
CCCCOc1c(Cl)c(Cl)c(C#N)c(Cl)c1C#N | – | 178 | 8 | –
CC(=O)Oc1c(Cl)c(Cl)c(C#N)c(Cl)c1C#N | 25 | 237 | – | –
CCC(=O)Oc1c(Cl)c(Cl)c(C#N)c(Cl)c1C#N | 11 | 178 | – | –
CCCC(=O)Oc1c(Cl)c(Cl)c(C#N)c(Cl)c1C#N | – | 178 | – | 14
CC(C)C(=O)Oc1c(Cl)c(Cl)c(C#N)c(Cl)c1C#N | 0 | 237 | – | –
CCCCCC(=O)Oc1c(Cl)c(Cl)c(C#N)c(Cl)c1C#N | 11 | > 300 | – | –
CCCCC(CC)C(=O)Oc1c(Cl)c(Cl)c(C#N)c(Cl)c1C#N (stereo not drawn) | 20 | > 300 | – | –
CCCCCCCC(=O)Oc1c(Cl)c(Cl)c(C#N)c(Cl)c1C#N | – | 178 | – | 22
N#Cc1c(Cl)c(Cl)c(OC(=O)c2ccccc2)c(C#N)c1Cl | 11 | > 300 | – | –
CNC(=O)Oc1c(Cl)c(Cl)c(C#N)c(Cl)c1C#N | – | 178 | 20 | –
CCCCNC(=O)Oc1c(Cl)c(Cl)c(C#N)c(Cl)c1C#N | – | 178 | 3 | –
N#Cc1ccc(Br)c(C#N)c1 | – | 178 | 3 | –
N#Cc1cccc(C#N)c1Cl | 20 | 300 | – | –

SMILES | Activity (Rattus norvegicus [1]) [%] | LD50 [2] [mg/kg] | Activity (Rattus norvegicus [3]) [%] | Activity (Rattus norvegicus [4]) [%]
N#Cc1ccc(F)c(C#N)c1 | – | 178 | – | 25
N#Cc1cc(C#N)c(Cl)cc1Cl | – | 178 | – | 5
N#Cc1c(Cl)cc(Cl)c(C#N)c1Cl | 8 | 100 | – | –
N#Cc1c(Cl)c(C#N)c(Nc2ccc(Cl)cc2)c(C#N)c1Cl | – | 178 | – | 1
N#Cc1c(Cl)c(C#N)c(Nc2cccc(C(F)(F)F)c2)c(C#N)c1Cl | 29 | 237 | – | –
N#Cc1c(Cl)c(C#N)c(Nc2ccc(Cl)c(Cl)c2)c(C#N)c1Cl | – | 56 | – | –
COc1ccc(Nc2c(C#N)c(Cl)c(C#N)c(Cl)c2C#N)cc1OC | – | 178 | – | 13
CNc1c(C#N)c(Cl)c(C#N)c(NC)c1C#N | 20 | 300 | – | –
CCNc1c(C#N)c(Cl)c(C#N)c(NCC)c1C#N | 11 | 300 | – | –
CC(C)Nc1c(C#N)c(Cl)c(C#N)c(NC(C)C)c1C#N | 5 | 300 | – | –
N#Cc1cc(C#N)cc(C#N)c1 | 32 | 300 | – | –
CCC(=O)Oc1c(Cl)c(Cl)c(C#N)c(Cl)c1Cl | 0 | > 300 | – | –
CCCC(=O)Oc1c(Cl)c(Cl)c(C#N)c(Cl)c1Cl | 15 | > 300 | – | –
CC(C)C(=O)Oc1c(Cl)c(Cl)c(C#N)c(Cl)c1Cl | 0 | > 300 | – | –
CCCCC(=O)Oc1c(Cl)c(Cl)c(C#N)c(Cl)c1Cl | 2 | > 300 | – | –
CCCCCC(=O)Oc1c(Cl)c(Cl)c(C#N)c(Cl)c1Cl | 0 | > 300 | – | –
CCC(CC)C(=O)Oc1c(Cl)c(Cl)c(C#N)c(Cl)c1Cl | 11 | > 300 | – | –
CCCCCCCC(=O)Oc1c(Cl)c(Cl)c(C#N)c(Cl)c1Cl | 0 | > 300 | – | –
CCCCC(CC)C(=O)Oc1c(Cl)c(Cl)c(C#N)c(Cl)c1Cl (stereo not drawn) | 15 | > 300 | – | –
CCCCCCCCCCCC(=O)Oc1c(Cl)c(Cl)c(C#N)c(Cl)c1Cl | 11 | > 300 | – | –
N#Cc1c(Cl)c(Cl)c(OC(=O)C(Cl)(Cl)Cl)c(Cl)c1Cl | 17 | > 300 | – | –
N#Cc1c(Cl)c(Cl)c(OC(=O)Cc2ccccc2)c(Cl)c1Cl | 0 | > 300 | – | –
N#Cc1c(Cl)c(Cl)c(OC(=O)c2ccccc2Cl)c(Cl)c1Cl | 0 | > 300 | – | –
N#Cc1c(Cl)c(Cl)c(OC(=O)c2ccc(Cl)c(Cl)c2)c(Cl)c1Cl | 3 | > 300 | – | –
CC(C)S(=O)(=O)c1c(Cl)c(Cl)c(C#N)c(Cl)c1Cl | 11 | > 300 | – | –
CCCCS(=O)(=O)c1c(Cl)c(Cl)c(C#N)c(Cl)c1Cl | 12 | 237 | – | –

SMILES | Activity (Rattus norvegicus [1]) [%] | LD50 [2] [mg/kg] | Activity (Rattus norvegicus [3]) [%] | Activity (Rattus norvegicus [4]) [%]
CCCCCS(=O)(=O)c1c(Cl)c(Cl)c(C#N)c(Cl)c1Cl | 5 | 237 | – | –
CCCCCCS(=O)(=O)c1c(Cl)c(Cl)c(C#N)c(Cl)c1Cl | – | 178 | – | 2
CCCCCCCCCCS(=O)(=O)c1c(Cl)c(Cl)c(C#N)c(Cl)c1Cl | 0 | > 300 | – | –
N#Cc1c(Cl)c(Cl)c(S(=O)(=O)CCCl)c(Cl)c1Cl | 0 | > 300 | – | –
N#Cc1c(Cl)c(Cl)c(S(=O)(=O)CCCCCl)c(Cl)c1Cl | 15 | > 300 | – | –
CCOCCS(=O)(=O)c1c(Cl)c(Cl)c(C#N)c(Cl)c1Cl | 23 | 237 | – | –
N#Cc1c(Cl)c(Cl)c(S(=O)(=O)CCCc2ccccc2)c(Cl)c1Cl | 18 | 300 | – | –
N#Cc1ccc(Br)cc1 | – | 237 | – | 75
N#Cc1ccccc1Cl | 26 | > 300 | – | –
N#Cc1ccccc1Br | 19 | > 300 | – | –
N#Cc1ccc(F)cc1 | 17 | > 300 | – | –
Cc1ccc(C#N)cc1C | 25 | > 300 | – | –
CCNc1c(F)c(C#N)c(F)c(F)c1C#N | 19 | 237 | – | –
CCCCNc1c(F)c(C#N)c(F)c(F)c1C#N | 14 | > 300 | – | –
CCCCCCNc1c(F)c(C#N)c(F)c(F)c1C#N | 11 | > 300 | – | –
CCN(CC)c1c(F)c(C#N)c(F)c(F)c1C#N | 0 | > 300 | – | –
CCCN(CCC)c1c(F)c(C#N)c(F)c(F)c1C#N | 22 | > 300 | – | –
N#Cc1c(F)c(F)c(C#N)c(Nc2ccc(O)cc2)c1F | 10 | > 300 | – | –
N#Cc1c(Cl)c(Cl)c(C#N)c(Cl)c1Cl | 13 | > 300 | – | –
N#Cc1ccc(C#N)cc1 | 27 | > 300 | – | –
N#Cc1ccc(C#N)c(Cl)c1 | 46 | > 300 | – | –
N#Cc1ccc(C#N)c(F)c1 | 49 | > 300 | – | –
N#Cc1cc(Cl)c(C#N)cc1Cl | 22 | > 300 | – | –
N#Cc1cc(F)c(C#N)cc1F | 32 | 56 | – | –
N#Cc1cc(Cl)c(C#N)cc1F | 22 | > 300 | – | –
